Data reported in patent US20250281629A1, “COMPOSITIONS AND METHODS FOR ANTI-PHOSPHOCHOLINE ACTIVE IMMUNOTHERAPY” (Duke University, priority 2022, published 2025).
Where no end group is shown, it is not given here. C11H22NO6P = phosphorylcholine group attached via 2-methacryloyloxyethyl phosphorylcholine

Experiments:
[1] = Zeta potential of nanofibers; assay type: physicochemical; conditions: 1 mM conjugate coassembled with 1 mM Q11; 0.2 mM in 1×PBS, 25° C.
Method: Zeta Potential. Nanofibers were diluted to 0.2 mM in 1×PBS and zeta potential measurements were conducted at 25° C. using an Anton Paar Litesizer 500.

[2] = test system: C57BL/6 mice; test: Chronic DSS-induced colitis, prophylactic immunization; assay type: in vivo, mouse
Description: DSS-Induced Colitis and Assessment. Before inducing colitis, mice from each treatment group were divided amongst the cages to avoid any cage-related disease effects. This excluded the PBS without DSS (healthy) control mice which remained in their own cage and received normal drinking water for the duration of the experiment. Colitis was induced by administering 2% (w/v) colitis-grade dextran sodium sulfate (MP Biomedicals, 160110) in drinking water. For determination of prophylactic immunization efficacy, mice were immunized i.p. 3 times at days −35, −21 and −7 before colitis induction on Day 0. Chronic colitis was induced via DSS-containing water given for 5 days followed by 5 days of normal drinking water for 3 cycles, resulting in a 30-day model. A shorter, acute DSS-induced colitis model consisting of one cycle of colitis was achieved by giving 5 days of 2% DSS in water followed by 5 days of normal drinking water for a total of 10 days and was also examined in a preventative immunization scenario. Mice were weighed daily and evaluated for the IACUC approved humane endpoint of >30% weight loss as DSS mice regain weight quickly after DSS administration ceases. They were also monitored for occult blood with Hemoccult tape and developer (Beckman Coulter, 63202) and fecal consistency. Disease activity index (DAI) scores were a combination of weight loss (≥100%=0, 90-99%=1, 80-89%=2, […]), occult blood (no blood=0, blood=3), and fecal consistency (hard=0, soft=1, softer=2, runny=3), with a possible daily maximum score of 9. […] At the experimental endpoint, mice were euthanized, and colon lengths were measured from the base of the cecum to the rectum using digital calibrators. To determine immunization efficacy in a therapeutic colitis setting, colitis was first induced by administering one cycle of colitis achieved by 5 days of 2% DSS in water followed by 5 days of normal drinking water for a total of 10 days. Mice were monitored daily as described above until they on average regained their original body weight on day 20. At this point, i.p. immunizations were initiated and given three times over a 4-week period on days 20, 32, and 45, and colitis monitoring was reduced to twice weekly. An additional cycle of colitis was then induced on day 51 via 5 days of 2% DSS in water followed by 5 days of normal drinking water for a total of 10 days with daily monitoring. The entire therapeutic model ended on day 60, and colon lengths were measured as described above.
FITC-dextran Measurements. On the last day of the chronic and therapeutic DSS colitis models, mice were fasted overnight and then given 0.6 mg/g 3-5 KDa m.w. FITC-dextran (Sigma, FD4) in 100 μL of sterile 1×PBS via oral gavage. Serum samples were collected 3 h later at the experimental endpoint. To determine the intestinal barrier permeability, serum samples were diluted in 1×PBS and FITC fluorescence intensity was measured at an excitation of 488 nm and emission of 520 nm. Values were converted to pg/mL via a standard curve of FITC-dextran in serum.
Spleen Bacteria Measurements. At the conclusion of the DSS experiments, spleens were harvested and weighed followed by homogenization in 500 μL of 0.1% Triton X-100 in sterile 1×PBS using a Tissue Tearer handheld homogenizer (Biospec Products). 25 μL of homogenate solution was then spread on each quarter of culture plates consisting of tryptic soy broth No. 2 (Sigma, 51228) and Difco agar, granulated (BD Biosciences, 214530) in dilutions from 100 to 103. After a 48 hr incubation at 37° C., colony forming units (CFUs) were counted and converted to CFU/g of spleen tissue via the equations: […]
Colon IL-10 Quantification. At the conclusion of some DSS experiments, one half of the harvested mouse colons were flushed with PBS to remove fecal matter and flash frozen in liquid nitrogen. […]

[3] = test system: B1a cells (CD19^+CD5^+); test: Colon B cell populations by flow cytometry: B1a cells; assay type: in vivo, mouse; conditions: vs other DSS-administered mice
Method: (§1) Determination of Colon B cell Populations. Small colon samples collected from either after immunization only or after colitis experiments were collected at experimental endpoints. Colon samples were flushed with PBS and then digested in a solution containing 200 U/mL collagenase from Clostridium histolyticum (Sigma, C5138) and 0.1 mg/mL DNase I (Sigma, 10104159001) in 1×PBS. Digestion occurred at 37° C. while shaking for a total of 30 minutes. The solutions were then filtered to isolate cells, spun down, and transferred into ice cold flow buffer (2% heat-inactivated FBS in 1×PBS). The cells were blocked with mouse BD Fc Block (Clone: 2.4G2) (BD Biosciences, 553142) for 30 min on ice and then washed in flow buffer and stained with antibodies against CD5-APC (Clone: 53-7.3) (BioLegend, 100626), CD19-APC/Cy7 (Clone: 6D5) (BioLegend, 115530), B220-PE (Clone: RA3-6B2) (BioLegend, […]), and CD138-PE/Cy7 (Clone: 281-2) (BioLegend, […]) in flow buffer for 30 min on ice. Cells were washed and DAPI was added. Flow cytometry was then conducted on a BD FACSCanto II cytometer and the results were analyzed using FlowJo software.

[4] = test system: plasma cells (B220^+CD138^+); test: Colon B cell populations by flow cytometry: plasma cells; assay type: in vivo, mouse; conditions: vs disease controls
Method: as §1

[5] = 2% DSS, 3 cycles, 30 days, vs disease controls

Substance	zeta potential (surface charge) of nanofibers [1]	disease activity index (DAI) scores / disease severity [2, 5]	weight loss [2, 5]	serum anti-PC IgG subclass responses at week 5 ([2]; before DSS administration)	IL-10 levels in colon homogenates ([2]; chronic colitis experiment 1)	colon length (colon shortening) ([2]; day 30, vs disease controls)	serum anti-PC IgM ([2]; i.p. days −35, −21, −7, without CpG)	colonic B1a cells after chronic DSS colitis [3]	colon plasma cells after chronic DSS colitis [4]
C11H22NO6P-CSGSG-QQKFQFQFEQQ-NH2 (C(C11H22NO6P)SGSGQQKFQFQFEQQ-NH2) [PC-Q11, phosphodiester PC-Q11]	neutrally charged	–	–	–	–	–	–	–	–
(C11H22NO6P)n-CCCCSGSG-QQKFQFQFEQQ-NH2 (CCCCSGSGQQKFQFQFEQQ-NH2; not fully specified; cysteine pairing not given here; also: phosphorylcholine groups (C11H22NO6P) n=1-4, attachment not placed) [PCM-Q11, linear multi-PC conjugate]	–	improved disease severity	reduced weight loss	skewed the subclass response towards non-inflammatory IgG1 with IgG2b also present	highest levels that were not significantly different from healthy controls	diminished colon shortening	did not induce anti-PC IgM within detection levels	decrease in B1a cells	more plasma cells than disease controls
